Experimental data published in ChEMBL document CHEMBL1154228, “Photoregulation of thrombin aptamer activity using Bhc caging strategy” (Bioorg Med Chem Lett, 2009).

Columns and labels:
[1] = target: T1, Prothrombin (Homo sapiens, UniProt P00734); experiment: Binding affinity to thrombin in presence of 100 mJ/cm'2 UV light by surface plasmon resonance assay
[2] = target: T1, Prothrombin; experiment: Binding affinity to thrombin by surface plasmon resonance assay

Kd [1]: 390 nM
Kd [2]: 320 nM
Structure (SMILES): Cc1cn([C@H]2C[C@H](OP(=O)(O)OC[C@H]3O[C@@H](n4cnc5c(=O)[nH]c(N)nc54)[C@H](O)[C@@H]3OP(=O)(O)OC[C@H]3O[C@@H](n4cnc5c(=O)[nH]c(N)nc54)[C@H](O)[C@@H]3OP(=O)(O)OC[C@H]3O[C@@H](n4cc(C)c(=O)[nH]c4=O)C[C@@H]3OP(=O)(O)OC[C@H]3O[C@@H](n4cc(C)c(=O)[nH]c4=O)C[C@@H]3OP(=O)(O)OC[C@H]3O[C@@H](n4cnc5c(=O)[nH]c(N)nc54)[C@H](O)[C@@H]3OP(=O)(O)OC[C@H]3O[C@@H](n4cnc5c(=O)[nH]c(N)nc54)[C@H](O)[C@@H]3O)[C@@H](COP(=O)(O)O[C@H]3[C@@H](O)[C@H](n4cnc5c(=O)[nH]c(N)nc54)O[C@@H]3COP(=O)(O)O[C@H]3C[C@H](n4cc(C)c(=O)[nH]c4=O)O[C@@H]3COP(=O)(O)O[C@H]3[C@@H](O)[C@H](n4cnc5c(=O)[nH]c(N)nc54)O[C@@H]3COP(=O)(O)O[C@H]3[C@@H](O)[C@H](n4cnc5c(=O)[nH]c(N)nc54)O[C@@H]3COP(=O)(O)O[C@H]3C[C@H](n4cc(C)c(=O)[nH]c4=O)O[C@@H]3COP(=O)(O)O[C@H]3C[C@H](n4cc(C)c(=O)[nH]c4=O)O[C@@H]3COP(=O)(O)O[C@H]3[C@@H](O)[C@H](n4cnc5c(=O)[nH]c(N)nc54)O[C@@H]3COP(=O)(O)O[C@H]3[C@@H](O)[C@H](n4cnc5c(=O)[nH]c(N)nc54)O[C@@H]3CO)O2)c(=O)[nH]c1=O [THROMBIN APTAMER]
